Earlier results, collected in patent US11439593B2, “Composition for treating onychomycosis” (NCP NewCare Products GmbH, priority 2017, dated 2022).
Where two headings read alike, the source gives them in different places.

| SMILES | stability in acidic environment (pH of about 5) | stability in acidic environment (pH of about 3) |
| --- | --- | --- |
| c1ccc(-c2ccc(C(c3ccccc3)n3ccnc3)cc2)cc1 (centres unmarked) [bifonazole] | stable | – |
| Cc1cc(C2CCCCC2)n(O)c(=O)c1 [ciclopirox] | – | stable |
| Clc1ccccc1C(c1ccccc1)(c1ccccc1)n1ccnc1 [clotrimazole] | stable | – |
| Clc1ccc(COC(Cn2ccnc2)c2ccc(Cl)cc2Cl)c(Cl)c1 (centres unmarked) [miconazole] | – | stable |
| CN(C/C=C/C#CC(C)(C)C)Cc1cccc2ccccc12 [terbinafine] | – | stable |
